Data taken from patent US20110039763A1, “TARGETED ANTIMICROBIAL MOIETIES” (C3 JIAN, INC., priority 2009, published 2011).
Entries after “also recorded” stand apart in the source; their conditions may differ.

Tested on: microorganisms
Experiment: Targeting peptide binding to target microorganisms (Tables 3, 10, 12)
Settings: peptide binding in aqueous buffers that varied with peptide solubility; preferably 1x PBS

| Substance | Target(s) (microorganism bound by the targeting peptide) |
| --- | --- |
| 1T-90 (RNVIGQVL; Peptide with targeting and/or antimicrobial activity) | S. gordonii; also recorded: S. mitis; also recorded: S. mutans; also recorded: S. oralis; also recorded: S. sanguinis |
| 1T-91 (TSVRPGAAGAAVPAGAAGAAGAGWRWP; Peptide with targeting and/or antimicrobial activity) | S. mitis; also recorded: S. mutans; also recorded: S. oralis; also recorded: S. sanguinis |
| 1T-92 (GQDEGQRRAGVGEGQGVDG; Peptide with targeting and/or antimicrobial activity) | S. mitis; also recorded: S. mutans |
| 1T-93 (AMRSVNQA; Peptide with targeting and/or antimicrobial activity) | S. epidermidis; also recorded: S. gordonii; also recorded: S. mitis; also recorded: S. mutans; also recorded: S. oralis; also recorded: S. sanguinis |
| 1T-94 (DQVAHSGDMLVQARRRDS; Peptide with targeting and/or antimicrobial activity) | S. mitis; also recorded: S. mutans; also recorded: S. oralis |
| 1T-95 (GHLLRVGGRVGGVGGVAGACAQPFGGQ; Peptide with targeting and/or antimicrobial activity) | S. gordonii; also recorded: S. mitis; also recorded: S. mutans; also recorded: S. oralis; also recorded: S. sanguinis |
| 1T-96 (VAGACAQPFGGQ; Peptide with targeting and/or antimicrobial activity) | S. gordonii; also recorded: S. mitis; also recorded: S. mutans; also recorded: S. oralis; also recorded: S. sanguinis |
| 1T-99 (MKAWLGQ; Peptide with targeting and/or antimicrobial activity) | S. gordonii; also recorded: S. mitis; also recorded: S. mutans; also recorded: S. oralis; also recorded: S. sanguinis |
| 1T-100 (LDPLEPRIAPPGDRSHQGAPACHRDPLRGRSARDAER; Peptide with targeting and/or antimicrobial activity) | S. gordonii; also recorded: S. mitis; also recorded: S. mutans |
| 1T-101 (RLRVGRATDLPLTSFAVGVVRNLPDAPAH; Peptide with targeting and/or antimicrobial activity) | A. naeslundii; also recorded: P. gingivalis; also recorded: S. epidermidis; also recorded: S. gordonii; also recorded: S. mitis; also recorded: S. mutans; also recorded: S. oralis; also recorded: S. sanguinis |
| 1T-104 (RAVAAHLQGRHHGHQVRRQRHGQR; Peptide with targeting and/or antimicrobial activity) | S. mitis |
| 1T-105 (GEGLPPPVLHLPPPRMSGR; Peptide with targeting and/or antimicrobial activity) | S. epidermidis; also recorded: S. gordonii; also recorded: S. mitis; also recorded: S. mutans; also recorded: S. oralis |
| 1T-106 (DALRRSRSQGRRHR; Peptide with targeting and/or antimicrobial activity) | S. gordonii; also recorded: S. mitis; also recorded: S. mutans; also recorded: S. oralis; also recorded: S. salivarious |
| 1T-107 (SPVPRFTAVGGVSRGSP; Peptide with targeting and/or antimicrobial activity) | A. naeslundii; also recorded: S. epidermidis; also recorded: S. gordonii; also recorded: S. mitis; also recorded: S. mutans; also recorded: S. oralis; also recorded: S. salivarious; also recorded: S. sanguinis |
| 1T-108 (WGPLGPERPLW; Peptide with targeting and/or antimicrobial activity) | S. gordonii; also recorded: S. mitis; also recorded: S. mutans; also recorded: S. oralis; also recorded: S. salivarious; also recorded: S. sanguinis |
